Our source for the colonies formed and growth inhibition values is patent US11479531B2, “Deoxyuridine triphosphatase inhibitors” (University of Southern California, priority 2015, dated 2022).

Test [1] has as its system colorectal (HCT116), breast (MCF-7) and non-small cell lung (H1299, A549, H358 and H460) cell line models. Briefly: Colony forming assay. The class given is cell-based. The settings on record: increasing concentrations of FUdR between 0.5 and 2.5 μmol/L; all cell lines evaluated. The protocol:
Colony forming assay showing the ability of colon (SW620, HCT116), non-small cell lung (A549, H460, H1299 and H358) and breast (MCF7) cancer cells to survive and proliferate following transient 24 hour exposure to test compounds, FUdR and combinations are determined. Specifically, cells are seeded at densities between 50 and 100 cells/well in 24-well plates. […] After 24 hours, drug is removed, cells are rinsed and allowed to outgrow for 10-14 days. At the conclusion of the outgrowth, cells are fixed in 60% ice cold methanol and stained with 0.1% crystal violet, scanned and counted. Data is presented as percentage of untreated controls (mean±SD). Fraction affected and combination indexes are calculated according to the method of Chou and Talalay where <1 is indicative of a synergistic drug interaction.
Colony forming assays are performed to evaluate the effectiveness of test compounds alone and in combination with the fluoropyrimidine thymidylate synthase (TS) inhibitor fluorodeoxyuridine (FUdR) at reducing cancer cell viability in colorectal (HCT116), breast (MCF-7) and non-small cell lung (H1299, A549, H358 and H460) cell line models.

In test [2] the test system is colorectal (HCT116 and SW620) cell line models. The test is described as follows: MTS growth inhibition assay. The note with it: increasing concentrations of 5-FU between 0 and 100 μmol/L; both colorectal cancer cell lines (HCT116, SW620). The class given is cell-based. As for the experimental part:
The Cell Titer AQueous MTS assay (Promega) is carried out according to the manufacturers guidelines. […] The combination effect is determined by the combination index (CI) method utilizing Calcusyn software (Biosoft, Ferguson, Mo.). […] CI values <1, synergism; 1-1.2, additive and >1.2, antagonism.
Test compounds are evaluated for their antitumor activity in colorectal cancer cells using the MTS growth inhibition assay. HCT116 and SW620 cells are exposed to increasing concentrations of each agent for 72 hours and growth inhibition is directly compared to vehicle-treated controls. The NSCLC cell lines A549 and H1299 are exposed to increasing concentrations of each agent for 72 hours and growth inhibition is directly compared to vehicle-treated controls.
Simultaneous treatment with increasing concentrations of 5-FU and a test compound at fixed concentrations of 25 μmol/L is determined.

The structures appear in SMILES notation.

Turning to `O=c1[nH]c(=O)n([C@H]2C[C@H](O)[C@@H](CO)O2)cc1F` [FUdR, fluorodeoxyuridine], in test [1], the colonies formed entry is on record as “dose-dependent decreases in colonies formed”.
Consider `O=c1[nH]cc(F)c(=O)[nH]1` [5-FU, 5-fluorouracil], for which, in test [2], the growth inhibition result was “dose-dependent increases in growth inhibition”.
